Assay results published in ChEMBL document CHEMBL1135908, “Synthesis and biological evaluation of cycloalkylidene carboxylic acids as novel effectors of Ras/Raf interaction” (J Med Chem, 2002).

Assay: Cytotoxicity of compound towards Y190 yeast cells
Assay type: functional, cell-based
Settings: Saccharomyces cerevisiae
`COc1ccc(C2CCC(=C(C)C(=O)O)CC2)cc1` (stereo not drawn) gave an EC50 of 130 µM.
Work on `CC(C(=O)O)=C1CCC(c2ccccc2)CC1` (stereo not drawn) yielded an EC50 of 143 µM.
With `O=C(O)C=C1CCCC1` the EC50 was over 300 µM.
`O=C(O)C=C1CCCCCC1` showed an EC50 of over 300 µM.
`CC(C(=O)O)=C1CCCC1` gave an EC50 of over 300 µM.
`C/C(C(=O)O)=C1\CCCC(C)C1` (stereo not drawn) gave an EC50 of over 300 µM.
`CCCC1CCC(=C(C)C(=O)O)CC1` (stereo not drawn) gave an EC50 of 74 µM.
For `CCC1CCC(=C(C)C(=O)O)CC1` (stereo not drawn), the EC50 was 125 µM.
In the case of `CC(C(=O)O)=C1CCCCC1`, the EC50 is reported as over 300 µM.
`CC(C(=O)O)=C1CCC(C)CC1` (stereo not drawn) gave an EC50 of over 300 µM.
`CC(C(=O)O)=C1CCC(C(C)(C)C)CC1` (stereo not drawn) showed an EC50 of 81 µM.
For `CC(C(=O)O)=C1CCCCCC1`, the EC50 was over 300 µM.
`O=CC=C1CCCCCC1` gave an EC50 of over 300 µM.
